Peptide text beside a SMILES is read from it.
How the values were obtained:
[1] = Inhibition of TNF-alpha (unknown origin) binding to TNFR1 assessed as dissociation constant of TNF-alpha preincubated for 15 mins by MST assay (Rvb = 13.4 nM)
[2] = Inhibition of TNF-alpha (unknown origin) binding to TNFR2 assessed as dissociation constant of TNF-alpha preincubated for 15 mins by MST assay (Rvb = 30.5 nM)

Kd [1]: 996 nM
Kd [2]: 321 nM
SMILES: C[C@H](N)C(=O)N[C@@H](CS)C(=O)N[C@@H](Cc1cnc[nH]1)C(=O)N[C@@H](C)C(=O)N[C@@H](Cc1c[nH]c2ccccc12)C(=O)N[C@@H](C)C(=O)N1CCC[C@H]1C(=O)N[C@H](C(=O)N[C@@H](CCCNC(=N)N)C(=O)O)[C@@H](C)O (H-ACHAWAPTR-OH)
